Test results as given in ChEMBL document CHEMBL1201862, “PubChem BioAssay data set” (2004).
One block for each compound: values may come before it. The source made the active and inactive calls.

Experiments:
[1] = biological target: Protein disulfide-isomerase (Homo sapiens, UniProt P07237); assay: inhibition of PDI-driven insulin aggregation – biochemical, turbidity, absorbance, cherry-picked samples, dose response (AID 602350); format: functional
HEK293 [2] = assay: cells; format: functional, cell-based; details: Homo sapiens
[3] = biological target: Nuclear receptor subfamily 0 group B member 1 (Homo sapiens, UniProt P51843); assay: Luminescence-based cell-based high throughput dose response assay for inhibitors of the orphan nuclear receptor subfamily 0, group B, member 1 (DAX1; NR0B1). [Related pubchem assays (depositor defined):AID504766, AID504790]; format: functional
Sequence of Nuclear receptor subfamily 0 group B member 1 (P51843 whole entry): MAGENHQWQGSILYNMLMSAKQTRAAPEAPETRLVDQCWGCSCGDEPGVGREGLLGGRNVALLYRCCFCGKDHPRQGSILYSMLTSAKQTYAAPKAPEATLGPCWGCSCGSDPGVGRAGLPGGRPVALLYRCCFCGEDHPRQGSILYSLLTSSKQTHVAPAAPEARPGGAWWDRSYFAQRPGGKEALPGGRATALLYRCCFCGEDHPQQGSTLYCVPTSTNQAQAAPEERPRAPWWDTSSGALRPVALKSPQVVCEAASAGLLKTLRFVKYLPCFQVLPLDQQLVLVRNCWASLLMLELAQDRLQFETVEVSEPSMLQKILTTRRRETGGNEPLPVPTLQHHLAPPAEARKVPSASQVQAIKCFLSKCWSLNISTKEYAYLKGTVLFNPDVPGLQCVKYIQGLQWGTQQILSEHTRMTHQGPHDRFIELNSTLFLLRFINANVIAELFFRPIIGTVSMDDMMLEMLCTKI

[4] = biological target: T1, Sentrin-specific protease 8 (Homo sapiens, UniProt Q96LD8); assay: inhibition of human SENP8 cleavage activity – biochemical, luminescence, SAR follow-up (AID 504501); format: functional
T1 sequence (Q96LD8 whole entry): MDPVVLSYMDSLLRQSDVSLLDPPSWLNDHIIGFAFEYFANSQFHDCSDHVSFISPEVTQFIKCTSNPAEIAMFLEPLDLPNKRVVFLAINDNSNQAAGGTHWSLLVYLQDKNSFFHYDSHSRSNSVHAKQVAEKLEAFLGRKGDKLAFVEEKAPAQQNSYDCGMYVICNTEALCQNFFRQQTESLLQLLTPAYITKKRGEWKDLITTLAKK

Caspase-3 = biological target: T2, Caspase-3 (Homo sapiens, UniProt P42574); assay: SAR Analysis of small molecule inhibitors of Sentrin-specific proteases (SENPs) using a Caspase-3 Selectivity assay. [Related pubchem assays (depositor defined):AID2540, AID2599, AID434973, AID489001]; format: functional
T2 sequence (P42574 whole entry): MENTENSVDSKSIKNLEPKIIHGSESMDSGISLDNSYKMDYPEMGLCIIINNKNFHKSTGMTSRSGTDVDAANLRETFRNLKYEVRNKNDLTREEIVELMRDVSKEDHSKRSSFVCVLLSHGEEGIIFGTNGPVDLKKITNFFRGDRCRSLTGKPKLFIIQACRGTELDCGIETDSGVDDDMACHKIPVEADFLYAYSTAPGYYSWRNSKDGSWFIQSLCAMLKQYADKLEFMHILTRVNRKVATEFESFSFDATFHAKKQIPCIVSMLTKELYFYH

[5] = biological target: T3, Sentrin-specific protease 6 (Homo sapiens, UniProt Q9GZR1); assay: SAR Analysis of small molecule inhibitors of Sentrin-specific protease 6 (SENP6) using a Luminescent assay. [Related pubchem assays (depositor defined):AID2582, AID2599]; format: functional
T3 sequence (Q9GZR1 whole entry): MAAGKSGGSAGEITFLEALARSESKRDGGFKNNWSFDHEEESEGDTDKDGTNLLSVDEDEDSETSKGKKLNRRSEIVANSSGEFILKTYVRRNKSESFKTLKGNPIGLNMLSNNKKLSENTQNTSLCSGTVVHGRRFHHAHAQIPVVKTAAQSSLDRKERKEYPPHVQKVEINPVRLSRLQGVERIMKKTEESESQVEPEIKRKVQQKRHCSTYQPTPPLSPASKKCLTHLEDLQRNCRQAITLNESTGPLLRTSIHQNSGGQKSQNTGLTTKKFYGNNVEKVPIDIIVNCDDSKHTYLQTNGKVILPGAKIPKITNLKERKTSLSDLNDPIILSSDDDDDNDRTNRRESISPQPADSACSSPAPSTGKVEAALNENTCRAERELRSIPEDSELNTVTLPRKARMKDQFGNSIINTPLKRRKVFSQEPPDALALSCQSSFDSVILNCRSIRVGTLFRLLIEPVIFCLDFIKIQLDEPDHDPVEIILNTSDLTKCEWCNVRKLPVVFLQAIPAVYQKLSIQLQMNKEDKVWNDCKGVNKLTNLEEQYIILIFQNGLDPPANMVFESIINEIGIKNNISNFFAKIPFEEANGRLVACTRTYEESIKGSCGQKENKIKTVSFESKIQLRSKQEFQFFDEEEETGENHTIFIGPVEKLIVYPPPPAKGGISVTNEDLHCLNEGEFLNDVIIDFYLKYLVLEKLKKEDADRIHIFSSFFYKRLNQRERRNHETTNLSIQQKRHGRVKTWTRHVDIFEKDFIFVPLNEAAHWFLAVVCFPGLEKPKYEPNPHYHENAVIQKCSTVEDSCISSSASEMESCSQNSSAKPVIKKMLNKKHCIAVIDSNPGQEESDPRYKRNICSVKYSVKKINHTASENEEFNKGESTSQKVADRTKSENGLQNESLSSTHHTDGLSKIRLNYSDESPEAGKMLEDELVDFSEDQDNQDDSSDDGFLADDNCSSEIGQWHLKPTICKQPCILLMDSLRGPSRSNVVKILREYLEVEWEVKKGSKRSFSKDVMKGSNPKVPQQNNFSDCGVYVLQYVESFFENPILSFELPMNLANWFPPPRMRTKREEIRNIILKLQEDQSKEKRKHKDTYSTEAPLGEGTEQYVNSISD

[6] = biological target: T4, Sentrin-specific protease 7 (Homo sapiens, UniProt Q9BQF6); assay: inhibition of human SENP7 cleavage activity – biochemical, luminescence, SAR follow-up (AID 504497); format: functional
T4 sequence (Q9BQF6 whole entry): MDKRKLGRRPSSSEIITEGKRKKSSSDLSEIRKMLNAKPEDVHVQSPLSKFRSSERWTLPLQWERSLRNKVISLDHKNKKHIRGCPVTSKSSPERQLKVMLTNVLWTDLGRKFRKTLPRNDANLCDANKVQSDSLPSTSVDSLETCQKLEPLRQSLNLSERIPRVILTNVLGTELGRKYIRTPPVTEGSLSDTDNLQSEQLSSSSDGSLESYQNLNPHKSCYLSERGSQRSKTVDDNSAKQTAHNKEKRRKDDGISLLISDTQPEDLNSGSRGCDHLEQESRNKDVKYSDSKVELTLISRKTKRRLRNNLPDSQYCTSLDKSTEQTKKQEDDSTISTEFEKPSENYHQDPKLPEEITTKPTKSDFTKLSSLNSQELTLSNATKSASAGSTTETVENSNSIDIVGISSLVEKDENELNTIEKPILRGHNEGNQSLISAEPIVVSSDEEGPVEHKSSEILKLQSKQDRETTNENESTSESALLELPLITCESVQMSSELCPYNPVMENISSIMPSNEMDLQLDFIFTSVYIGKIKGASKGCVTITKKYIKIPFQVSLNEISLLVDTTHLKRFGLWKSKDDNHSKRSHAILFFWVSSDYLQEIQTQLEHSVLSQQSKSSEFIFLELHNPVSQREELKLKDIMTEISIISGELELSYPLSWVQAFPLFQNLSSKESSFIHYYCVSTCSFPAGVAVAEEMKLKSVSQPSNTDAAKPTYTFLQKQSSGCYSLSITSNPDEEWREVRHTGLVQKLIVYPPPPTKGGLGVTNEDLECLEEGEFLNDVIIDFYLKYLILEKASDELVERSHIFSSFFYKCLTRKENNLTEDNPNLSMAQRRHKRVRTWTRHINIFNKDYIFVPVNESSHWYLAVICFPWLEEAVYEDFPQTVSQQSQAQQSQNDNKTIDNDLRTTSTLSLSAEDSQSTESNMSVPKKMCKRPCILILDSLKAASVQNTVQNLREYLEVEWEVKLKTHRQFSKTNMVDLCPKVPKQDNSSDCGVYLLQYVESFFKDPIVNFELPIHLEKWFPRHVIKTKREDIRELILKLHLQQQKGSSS

[7] = biological target: Melanin-concentrating hormone receptor 1 (Homo sapiens, UniProt Q99705); assay: Late-stage fluorescence-based counterscreen for antagonists of the G-protein coupled receptor 7 (GPR7): cell-based dose response assay to identify antagonists of the melanin-concentrating hormone receptor 1 (MCHR1) Set 5.; format: functional
Sequence of Melanin-concentrating hormone receptor 1 (Q99705 whole entry): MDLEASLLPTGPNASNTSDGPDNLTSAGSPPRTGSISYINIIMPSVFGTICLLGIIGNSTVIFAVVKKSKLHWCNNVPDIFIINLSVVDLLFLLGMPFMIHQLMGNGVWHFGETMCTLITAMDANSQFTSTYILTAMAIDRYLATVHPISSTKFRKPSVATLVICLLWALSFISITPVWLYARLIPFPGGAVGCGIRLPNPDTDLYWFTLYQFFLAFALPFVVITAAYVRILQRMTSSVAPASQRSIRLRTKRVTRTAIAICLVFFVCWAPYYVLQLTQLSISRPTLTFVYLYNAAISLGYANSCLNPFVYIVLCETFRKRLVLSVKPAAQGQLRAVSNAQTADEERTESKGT

[8] = Trypanosoma cruzi growth suppression in host cells – NIH3T3 host cells, beta-gal luminescence, confirmation (AID 2044); format: functional, cell-based;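 further: intracellular parasites grown in NIH/3T3 mouse fibroblasts as host cells; luminescent beta-galactosidase reporter signal from transgenic T. cruzi replicating inside host cells; inhibitors lower the luminescence signal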
[9] = NIH3T3 cell viability loss – ATP luminescence, mouse fibroblasts, counter-screen, dose response (AID 2010); format: functional, cell-based;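 further: cells exposed to compound for about 90 hours before reading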
[10] = blockers of HIV-1 envelope-mediated cell-cell fusion – cherry-pick, dose response (AID 652057); format: functional, cell-based
[11] = viability loss in CEM21 cells – cell-based, CellTiter-Glo luminescence, cherry-picked, cytotoxicity control for viral fusion inhibitor project, dose response (AID 652042); format: functional;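 further: potency for signal decrease meaning cytotoxicity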
[12] = blockers of HIV-1 ZM109 envelope-driven cell-cell fusion – HeLa effector, CEM target cells, luciferase, cherry-pick, dose response (AID 652058); format: functional, cell-based;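 further: luciferase signal from HIV-1 Env mediated cell-cell fusion of effector and target cells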
[13] = off-target signal loss in HeLa-CEM21 co-culture – HeLa F-luc CTL cells, cherry-picked, counter-screen for HIV-1 Env fusion inhibitor project, dose response (AID 652040); format: functional, cell-based;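 further: potency for signal decrease marking cytotoxic or nonspecific inhibition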
[14] = HIV-1 AD8 envelope cell-cell fusion blockers – cherry-pick, dose response (AID 652062); format: functional, cell-based;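 further: luciferase signal from cell-cell fusion driven by HIV-1 clade B AD8 Env; potency is for inhibitors of fusion seen as a drop in luminescence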
HEK293 [15] = assay: cells; details: Homo sapiens
HEK293 [16] = assay: cells; details: Homo sapiens; remark: listed apart in the source

Sequence of Protein disulfide-isomerase (P07237 whole entry): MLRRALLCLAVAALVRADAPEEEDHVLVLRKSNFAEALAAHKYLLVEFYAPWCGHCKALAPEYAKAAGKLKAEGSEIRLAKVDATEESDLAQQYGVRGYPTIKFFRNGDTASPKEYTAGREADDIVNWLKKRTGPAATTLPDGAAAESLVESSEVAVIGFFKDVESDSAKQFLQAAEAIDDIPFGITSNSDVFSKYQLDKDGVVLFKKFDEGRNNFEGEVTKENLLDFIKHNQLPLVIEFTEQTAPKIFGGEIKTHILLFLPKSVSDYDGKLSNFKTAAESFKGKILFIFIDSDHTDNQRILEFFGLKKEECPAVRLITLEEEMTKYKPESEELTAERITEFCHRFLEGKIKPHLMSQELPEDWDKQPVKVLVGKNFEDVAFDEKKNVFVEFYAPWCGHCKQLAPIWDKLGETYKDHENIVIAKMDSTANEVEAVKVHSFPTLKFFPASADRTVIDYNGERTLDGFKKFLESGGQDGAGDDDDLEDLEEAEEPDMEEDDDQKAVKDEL

SMILES: CCSc1nnc([C@H](Cc2c[nH]c3ccccc23)NC(=O)OC(C)(C)C)o1
AC50 [1]: 19.5 µM (active)

SMILES: O=C(NCCN1CCCCC1)Nc1ccc([N+](=O)[O-])cc1
IC50 (HEK293 [2]): > 67.5 µM (inactive) | IC50 [3]: > 67.5 µM (inactive)

SMILES: CCOc1ccc2nc(N(CCCn3ccnc3)C(=O)c3ccc(Cl)s3)sc2c1
IC50 [4]: > 99 µM (inactive) | IC50 (Caspase-3): > 99 µM (inactive) | IC50 [5]: > 99 µM (inactive) | IC50 [6]: > 99 µM (inactive)

SMILES: CCN(CC(O)CON=C1c2ccccc2-c2ccccc21)S(=O)(=O)c1ccc(C)cc1 (stereo not drawn)
EC50 [8]: 1.68 µM (active) | EC50 [9]: > 60 µM (not active) | AC50 [10]: 2.96 µM (active) | AC50 [11]: 41.7 µM (active) | AC50 [12]: 2.97 µM (active) | AC50 [13]: 4.5 µM (active) | AC50 [14]: 2.44 µM (active) | EC50 (HEK293 [15]): > 59.6 µM (inactive) | EC50 (HEK293 [16]): > 59.6 µM (inactive)

The remaining lines, values ahead:

AC50 [1]: 19.5 µM (active)
SMILES: C[C@H]1CN([C@@H](C)CO)C(=O)c2cc(NC(=O)Cc3cn(C)c4ccccc34)ccc2O[C@@H]1CN(C)S(=O)(=O)c1ccc(F)cc1

IC50 [7]: 1.22 µM (active)
SMILES: CSc1ccc(Oc2c(Cl)cnn(Cc3cccc4ccccc34)c2=O)cc1
